The values that follow come from patent US20090181933A1, “USE OF STEROIDS TO TREAT PERSONS SUFFERING FROM OCULAR DISORDERS” (priority 2008, published 2009).

The subject of data set [1] is IOP of rabbits receiving subTenon's dexamethasone acetate. The experiment in a line: Rabbit dexamethasone acetate-induced IOP elevation, topical ocular dosing. In kind it is in vivo. Conditions: for IOP change versus vehicle treated group: weekly subTenon's dexamethasone acetate 1 mg/kg. As to the method:
Three groups of rabbits received weekly subTenon's injections of dexamethasone acetate (1 mg/kg) for 4 weeks. After two weeks, the […] of all three groups measured approximately 5 mm Hg. The rabbits were then treated with vehicle, 0.1% anecortave acetate, a 1% anecortave acetate by topical ocular dosing three times a day for the remaining 2 weeks. The IOP continued to increase in the vehicle treated group.

Data set [2] relates to glucocorticoid induced ocular hypertension. The experiment in a line: Topical anecortave acetate eye drops in patients with glucocorticoid induced ocular hypertension. Type of data set: in vivo, human (patients). Conditions: 1% eye drops topically three times per day for up to 12 weeks, glucocorticoid continued, reduced from 29 mm Hg. The protocol:
Patients ([…]) with documented glucocorticoid induced ocular hypertension were treated topically with 1% anecortave acetate eye drops three times per day for up to 12 weeks. The patients continued to receive their glucocorticoid medication.

Consider `CC(=O)OCC(=O)[C@@]1(O)[C@H](C)C[C@H]2[C@@H]3CCC4=CC(=O)C=C[C@]4(C)[C@@]3(F)[C@@H](O)C[C@@]21C` [dexamethasone acetate], for which, in data set [1] (weekly subTenon's injections 1 mg/kg, after two weeks, all three groups), the “IOPs (printed TOPs) after two weeks of dexamethasone acetate” value is “approximately 5 mm Hg”.
For `CC(=O)OCC(=O)[C@@]1(O)CC[C@H]2[C@@H]3CCC4=CC(=O)CC[C@]4(C)C3=CC[C@@]21C` [anecortave acetate, 4,9(11)-pregnadien-17α,21-diol-3,20dione-21-acetate], the “IOP change versus vehicle treated group” value in data set [1] (0.1% topical ocular three times a day for 2 weeks) and in data set [1] (1% topical ocular three times a day for 2 weeks) was “significantly lowered” throughout. The “IOP after anecortave acetate treatment” value in data set [2] is on record as 19-22 mm Hg.
